# Experimental data published in PMC2248166, “Quantitative peptide binding motifs for 19 human and mouse MHC class I molecules derived using positional scanning combinatorial peptide libraries” (Immunome Research, 2008).
# Experiments:
# [1] = biological target: HLA B*5101 (Homo sapiens, UniProt P01889, A329T/A93T/A95T/C349S/D138N/D201E/D98Y/E187L/E204Q/E69T/G107R/I218V/K202T/L105A/L119W/N104I/Q94N/R106L/R155S/R180L/S101N/S121T/S35A/S48A/V306I/V36M/Y195H/Y91F); format: binding
# [2] = biological target: HLA B*5301 (Homo sapiens, UniProt P01889, A329T/A93T/A95T/C349S/D201E/D98Y/E176V/E187L/E204Q/E69T/G107R/I218V/K202T/L105A/L119I/N104I/Q94N/R106L/R155S/R180L/S101N/S121R/S35A/S48A/T118I/V127L/V306I/V36M/Y140S/Y91F); format: binding
# [3] = biological target: HLA B*2705 (Homo sapiens, UniProt P01889, D138H/D201E/E176V/E204Q/G107R/H137Y/K202T/N104T/N87E/Q56L/Q94K/R106L/R155S/R180L/S101D/S121N/S48T/Y140D/Y33H/Y91C); format: binding; conditions: positional scanning combinatorial 9-mer library; normalized to 1.0 for the best residue at each position
# [4] = biological target: HLA B*3501 (Homo sapiens, UniProt P01889, A329T/A93T/A95T/C349S/D201E/D98Y/E176V/E187L/E204Q/E69T/I218V/K202T/L119I/Q94N/R155S/R180L/S121R/S35A/S48A/T118I/V127L/V306I/V36M/Y140S/Y91F); format: binding
# [5] = biological target: H-2 K^k (Mus musculus, UniProt P04223); format: binding
# [6] = biological target: HLA B*5801 (Homo sapiens, UniProt P01889, A329T/C349S/D201E/D98Y/E176V/E187L/E204Q/E69T/G107R/I218V/I90N/K202T/L105A/L119I/N104I/N87E/Q89R/Q94S/R106L/R155S/R180L/R86G/S101N/S121R/S35A/S48A/T118I/V127L/V306I/V36M/Y140S/Y91M); format: binding
# [7] = biological target: H-2 D^b (Mus musculus, UniProt P01899); format: binding
# [8] = biological target: HLA A*0201 (Homo sapiens, UniProt P04439, D140Y/D185E/D98H/E176V/E277Q/G131W/G231S/I119V/I121R/I166T/I218V/L300P/L318F/N151K/N90K/P208A/P217A/Q86G/Q94H/R138H/R169H/T345S); conditions: positional scanning combinatorial 9-mer library; normalized to 1.0 for the best residue at each position
# [9] = biological target: HLA B*0801 (Homo sapiens, UniProt P01889, A93T/A95T/D138N/E176V/E187T/K202T/Q94N/R180D/S35A/V36M/Y33D/Y91F); assay: biochemical; format: binding
# [10] = biological target: HLA B*5802 (Homo sapiens, UniProt P01889, A329T/C349S/D201E/D98Y/E176V/E187L/E204Q/E69T/G107R/I218V/I90N/K202T/L105A/N104I/N87E/Q89R/Q94S/R106L/R155S/R180L/R86G/S101N/S121W/S35A/S48A/V127L/V306I/V36M/Y140S/Y91M); format: binding
# [11] = biological target: HLA B*1503 (Homo sapiens, UniProt P01889, A329T/A93T/A95T/C349S/D201E/D98Y/E187L/E204Q/K202T/N87E/Q94N/R155S/R180L/S121R/S35A/V306I/V36M/Y140S/Y91S); assay: biochemical; format: binding
# [12] = biological target: HLA B*1501 (Homo sapiens, UniProt P01889, A329T/A93T/A95T/C349S/D201E/D98Y/E187L/E204Q/E69M/E70A/K202T/N87E/Q94N/R155S/R180W/S121R/S35A/S48A/V306I/V36M/Y140S/Y91S); assay: biochemical; format: binding
# [13] = biological target: HLA A*3001 (Homo sapiens, UniProt P04439, D140H/D185E/E176W/F33S/G80R/H175R/K168Q/R138E/R41S); assay: biochemical; format: binding
# [14] = biological target: H-2 D^d (Mus musculus, UniProt P01900); format: binding
# [15] = biological target: HLA A*6802 (Homo sapiens, UniProt P04439, A269V/D140Y/D185E/E176V/E277Q/E87N/F33Y/G231S/I121R/I166T/I218V/L180W/L300P/L318F/N151K/P208A/P217A/Q86R/R138H/R169H/S129P/T345S/V36M); format: binding
# [16] = biological target: HLA B*5401 (Homo sapiens, UniProt P01889, A329T/C349S/D138N/D201E/E176V/E187T/E204Q/E69G/I76V/K202T/L119W/R155S/R180L/S121T/S35A/S48A/V127L/V306I/V36M/Y140L); format: binding
# [17] = biological target: HLA A*3201 (Homo sapiens, UniProt P04439, A270S/D101S/D185E/E176V/E277Q/F133L/G103R/G107R/G231S/H175R/I121M/I218V/I322F/K168Q/L105A/L300P/L318F/M331R/P208A/P217A/Q94H/R106L/R138Q/S129P/T104I/T323A/T345S/V100E/V321M/V358M); assay: biochemical; format: binding
# [18] = biological target: HLA B*0702 (Homo sapiens, UniProt P01889); format: binding; conditions: positional scanning combinatorial 9-mer library; normalized to 1.0 for the best residue at each position
# Chain of H-2 D^d (P01900 whole entry, looked up): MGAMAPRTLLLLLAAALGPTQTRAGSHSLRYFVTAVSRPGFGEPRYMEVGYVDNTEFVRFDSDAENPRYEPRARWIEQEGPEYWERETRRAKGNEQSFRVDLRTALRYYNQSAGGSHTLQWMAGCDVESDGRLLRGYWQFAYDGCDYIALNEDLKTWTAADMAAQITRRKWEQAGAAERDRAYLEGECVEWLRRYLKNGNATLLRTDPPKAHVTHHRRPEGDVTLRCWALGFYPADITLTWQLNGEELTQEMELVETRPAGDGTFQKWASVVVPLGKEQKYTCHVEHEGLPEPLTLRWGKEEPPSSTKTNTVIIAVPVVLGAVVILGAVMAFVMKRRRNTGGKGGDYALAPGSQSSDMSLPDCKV
# Chain of H-2 D^b (P01887 21-119): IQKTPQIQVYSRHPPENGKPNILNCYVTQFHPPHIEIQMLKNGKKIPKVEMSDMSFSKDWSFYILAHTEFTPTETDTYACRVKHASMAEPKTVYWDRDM
# Chain of H-2 D^b (P01899 25-362): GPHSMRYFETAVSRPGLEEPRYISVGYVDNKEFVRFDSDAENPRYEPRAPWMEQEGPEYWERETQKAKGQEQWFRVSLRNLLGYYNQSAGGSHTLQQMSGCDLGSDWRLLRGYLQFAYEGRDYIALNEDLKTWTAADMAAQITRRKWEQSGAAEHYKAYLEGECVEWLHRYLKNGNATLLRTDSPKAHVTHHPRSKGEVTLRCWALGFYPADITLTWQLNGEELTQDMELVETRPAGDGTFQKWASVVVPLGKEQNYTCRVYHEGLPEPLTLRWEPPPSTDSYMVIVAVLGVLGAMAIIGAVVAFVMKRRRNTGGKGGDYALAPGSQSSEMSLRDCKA
# Chain of H-2 K^k (P01887 21-119): as the sequence (P01887 21-119) above
# Chain of H-2 K^k (P04223 22-369): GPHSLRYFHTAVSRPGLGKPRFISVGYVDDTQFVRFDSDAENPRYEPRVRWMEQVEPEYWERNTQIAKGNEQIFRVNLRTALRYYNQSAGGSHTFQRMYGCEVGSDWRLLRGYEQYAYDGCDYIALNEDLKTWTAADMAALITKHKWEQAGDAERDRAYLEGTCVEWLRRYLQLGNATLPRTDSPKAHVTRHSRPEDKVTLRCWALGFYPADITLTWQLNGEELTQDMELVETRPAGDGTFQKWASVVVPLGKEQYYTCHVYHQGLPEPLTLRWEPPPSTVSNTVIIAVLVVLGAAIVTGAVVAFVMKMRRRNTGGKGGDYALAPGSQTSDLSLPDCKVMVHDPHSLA
Sequence,"Normalized average relative binding affinity (ARB), HLA B*5101 [1]","Normalized average relative binding affinity (ARB), HLA B*5301 [2]","Normalized average relative binding affinity (ARB), HLA B*2705 [3]","Normalized average relative binding affinity (ARB), HLA B*3501 [4]","Normalized average relative binding affinity (ARB), H-2 Kk [5]","Normalized average relative binding affinity (ARB), HLA B*5801 [6]","Normalized average relative binding affinity (ARB), H-2 Db [7]","Normalized average relative binding affinity (ARB), HLA A*0201 [8]","Normalized average relative binding affinity (ARB), HLA B*0801 [9]","Normalized average relative binding affinity (ARB), HLA B*5802 [10]","Normalized average relative binding affinity (ARB), HLA B*1503 [11]","Normalized average relative binding affinity (ARB), HLA B*1501 [12]","Normalized average relative binding affinity (ARB), HLA A*3001 [13]","Normalized average relative binding affinity (ARB), H-2 Dd [14]","Normalized average relative binding affinity (ARB), HLA A*6802 [15]","Normalized average relative binding affinity (ARB), HLA B*5401 [16]","Normalized average relative binding affinity (ARB), HLA A*3201 [17]","Normalized average relative binding affinity (ARB), HLA B*0702 [18]"
XPXXXXXXX [3064.0033],1.0,1.0,0.0016,1.0,0.017,0.014,0.036,0.0034,1.0,0.051,0.031,0.015,0.024,0.064,0.041,0.19,0.022,1.0
XQXXXXXXX [3064.0034],0.11,0.047,0.016,0.039,0.053,0.024,1.0,0.14,0.13,0.21,1.0,1.0,0.33,0.015,0.0081,0.0034,0.32,0.011
XRXXXXXXX [3064.0035],0.022,0.0045,1.0,0.068,0.0071,0.017,0.036,0.0016,0.30,0.030,0.059,0.024,0.048,0.028,0.0069,0.0042,0.0090,0.0078
